Assay results taken from US20200249573A1, “COMPOSITION FOR RESIST UNDERLAYER FILM FORMATION, UNDERLAYER FILM FOR LITHOGRAPHY, AND PATTERN FORMATION METHOD” (MITSUBISHI GAS CHEMICAL COMPANY, INC., priority 2016, published 2020).

Assay: Solubility of the compound in PGMEA (safe solvent)
Conditions: 23° C.; for solubility in PGMEA (amount of dissolution): ultrasonic waves 30 minutes, visual observation
Procedure: The solubility of the obtained compound in propylene glycol monomethyl ether acetate (PGMEA) was measured as the solubility of the compound in a safe solvent. The solubility was evaluated according to the following criteria utilizing the amount of dissolution in PGMEA. The amount of dissolution in PGMEA was measured at 23° C. by precisely weighing the compound into a test tube, adding PGMEA so as to attain a predetermined concentration, applying ultrasonic waves for 30 minutes in an ultrasonic cleaner, then visually observing the subsequent state of the fluid, and conducting evaluation on the basis of the concentration of the amount of complete dissolution.
A: 5.0% by mass<Amount of dissolution
B: 3.0% by mass<Amount of dissolution<5.0% by mass
C: Amount of dissolution<3.0% by mass

Compound | solubility in PGMEA, evaluation | solubility in PGMEA (amount of dissolution) [% by mass]
CC1(OC(=O)COc2ccc([Te](Cl)(Cl)c3ccc(OCC(=O)OC4(C)C5CC6CC(C5)CC4C6)cc3)cc2)C2CC3CC(C2)CC1C3 (stereo not shown) [BHPT-ADBAC, bis(4-(2-methyl-2-adamantyloxycarbonylmethoxy)phenyl)tellurium dichloride] | A (5.0% by mass<Amount of dissolution) | ≥ 5
CC1(OC(=O)COc2ccc([Te](Cl)(Cl)c3ccc(OCC(=O)OC4(C)C5CC6CC(C5)CC4C6)cc3OCC(=O)OC3(C)C4CC5CC(C4)CC3C5)cc2)C2CC3CC(C2)CC1C3 (stereo not shown) [CCHT-ADBAC] | A (5.0% by mass<Amount of dissolution) | ≥ 5
CC1(OC(=O)COc2ccc([Te]c3ccc(OCC(=O)OC4(C)C5CC6CC(C5)CC4C6)c(-c4ccccc4)c3)cc2-c2ccccc2)C2CC3CC(C2)CC1C3 (stereo not shown) [Ph-TDP-ADBAC] | A (5.0% by mass<Amount of dissolution) | ≥ 5
CC(C)(C)OC(=O)Oc1ccc([Te](Cl)(Cl)c2ccc(OC(=O)OC(C)(C)C)cc2)cc1 [BHPT-BOC, bis(tert-butoxycarboxyphenyl)tellurium dichloride] | A (5.0% by mass<Amount of dissolution) | ≥ 5
CC1(OC(=O)COc2ccc([Te](Cl)(Cl)c3ccc(OCC(=O)OC4(C)C5CC6CC(C5)CC4C6)c(-c4ccccc4)c3)cc2-c2ccccc2)C2CC3CC(C2)CC1C3 (stereo not shown) [Ph-BHPT-ADBAC] | A (5.0% by mass<Amount of dissolution) | ≥ 5
CC1(OC(=O)COc2ccc([Te]c3ccc(OCC(=O)OC4(C)C5CC6CC(C5)CC4C6)cc3)cc2)C2CC3CC(C2)CC1C3 (stereo not shown) [TDP-ADBAC] | A (5.0% by mass<Amount of dissolution) | ≥ 5
CCOC(C)Oc1ccc([Te](Cl)(Cl)c2ccc(OC(C)OCC)cc2)cc1 (stereo not shown) [BHPT-EE, bis(ethoxyethylphenyl)tellurium dichloride] | A (5.0% by mass<Amount of dissolution) | ≥ 5
Oc1ccc([Te](Cl)(Cl)c2ccc(O)cc2)cc1 [BHPT, bis(4-hydroxyphenyl)tellurium dichloride] | A (5.0% by mass<Amount of dissolution) | ≥ 5
CCOC(C)Oc1ccc([Te](Cl)(Cl)c2ccc(OC(C)OCC)c(-c3ccccc3)c2)cc1-c1ccccc1 (stereo not shown) [Ph-TDP-EE] | A (5.0% by mass<Amount of dissolution) | ≥ 5
CC(C)(C)OC(=O)COc1ccc([Te]c2ccc(OCC(=O)OC(C)(C)C)c(-c3ccccc3)c2)cc1-c1ccccc1 [Ph-TDP-BOC] | A (5.0% by mass<Amount of dissolution) | ≥ 5
Oc1ccc([Te](Cl)(Cl)c2ccc(O)c(-c3ccccc3)c2)cc1-c1ccccc1 [Ph-BHPT, bis(3-phenyl-4-hydroxyphenyl)tellurium dichloride] | A (5.0% by mass<Amount of dissolution) | ≥ 5
Oc1ccc([Te]c2ccc(O)cc2)cc1 [TDP, 4,4′-telluriumdiphenol] | A (5.0% by mass<Amount of dissolution) | ≥ 5
Oc1ccc([Te](Cl)(Cl)c2ccc(O)cc2O)cc1 [CCHT, (2,4-dihydroxyphenyl) (4-hydroxyphenyl)tellurium dichloride] | A (5.0% by mass<Amount of dissolution) | ≥ 5
Oc1ccc([Te]c2ccc(O)c(-c3ccccc3)c2)cc1-c1ccccc1 [Ph-TDP, bis(3-phenyl-4-hydroxyphenyl)tellurium] | A (5.0% by mass<Amount of dissolution) | ≥ 5
